Source: article PMC4336569 (European journal of medicinal chemistry, 2014)
“Also recorded” adds a separate entry of the source.

Assays:
CCI-exposed rats [1] = assay: Cross tolerance with morphine in neuropathic pain model; format: in vivo, rat; conditions: for cross tolerance with morphine: single dose of morphine 3.5 nmol on day 13 after repeated hybrid 1 nmol i.t.
mice [2] = conditions: 3.8 μmol/kg i.v., previous study; cited from earlier work
naïve rats = assay: Tail-flick test; conditions: for antinociceptive effect in acute pain: 1 nmol i.t.; for toxic effect: 9.5 nmol i.t.; for toxic effect / Response (ED50) with 95% confidence limits, Tail-flick / effect in tail-flick test: naïve rats; for Response (ED50) with 95% confidence limits, Tail-flick: acute pain; for effect in tail-flick test: i.t., 30 min after administration; for duration of antinociceptive effect: after intrathecal administration, data not shown
CCI-exposed rats [3] = assay: von Frey test; conditions: for Response (ED50) with 95% confidence limits, von Frey: neuropathic pain
CCI-exposed rats [4] = assay: Cold plate test; conditions: for Response (ED50) with 95% confidence limits, Cold plate: neuropathic pain
mice [5] = assay: Tail-flick test
hNK1R [6] = biological target: T1, hNK1R (Homo sapiens, UniProt P25103); assay: hNK1/CHO cell membrane radioligand binding assay
T1 sequence (P25103 whole entry): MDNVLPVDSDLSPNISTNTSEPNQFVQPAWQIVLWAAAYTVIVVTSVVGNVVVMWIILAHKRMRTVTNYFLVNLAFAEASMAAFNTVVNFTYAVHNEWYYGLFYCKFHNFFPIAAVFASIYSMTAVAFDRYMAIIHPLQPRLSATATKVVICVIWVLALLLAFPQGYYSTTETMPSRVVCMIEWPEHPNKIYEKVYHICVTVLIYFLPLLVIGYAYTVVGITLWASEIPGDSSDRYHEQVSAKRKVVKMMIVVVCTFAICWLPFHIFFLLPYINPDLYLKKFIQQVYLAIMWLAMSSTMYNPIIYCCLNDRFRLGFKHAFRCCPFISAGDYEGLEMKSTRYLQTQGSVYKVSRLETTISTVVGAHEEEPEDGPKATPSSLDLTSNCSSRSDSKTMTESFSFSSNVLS

MOR [7] = biological target: MOR (Rattus norvegicus, UniProt P33535); assay: Opioid receptor binding assay, [3H]DAMGO displacement; conditions: vs 4 (Gly4 replaced by β-Ala)
MOR (Rattus norvegicus, UniProt P33535), sequence (P33535 whole entry): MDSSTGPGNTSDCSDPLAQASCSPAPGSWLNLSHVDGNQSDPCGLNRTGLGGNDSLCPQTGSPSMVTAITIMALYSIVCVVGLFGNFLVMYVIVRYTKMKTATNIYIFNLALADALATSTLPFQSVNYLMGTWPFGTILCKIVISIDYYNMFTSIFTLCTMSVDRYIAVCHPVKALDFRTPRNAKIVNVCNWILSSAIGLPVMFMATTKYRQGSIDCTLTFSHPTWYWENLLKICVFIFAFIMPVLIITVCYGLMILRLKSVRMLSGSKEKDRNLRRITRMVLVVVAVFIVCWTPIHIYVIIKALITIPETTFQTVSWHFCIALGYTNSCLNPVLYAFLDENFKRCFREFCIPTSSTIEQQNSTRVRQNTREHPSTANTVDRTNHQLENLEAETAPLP

DOR [8] = biological target: DOR (Rattus norvegicus, UniProt P33533); assay: Opioid receptor binding assay, [3H]DSLET displacement
DOR (Rattus norvegicus, UniProt P33533), sequence (P33533 whole entry): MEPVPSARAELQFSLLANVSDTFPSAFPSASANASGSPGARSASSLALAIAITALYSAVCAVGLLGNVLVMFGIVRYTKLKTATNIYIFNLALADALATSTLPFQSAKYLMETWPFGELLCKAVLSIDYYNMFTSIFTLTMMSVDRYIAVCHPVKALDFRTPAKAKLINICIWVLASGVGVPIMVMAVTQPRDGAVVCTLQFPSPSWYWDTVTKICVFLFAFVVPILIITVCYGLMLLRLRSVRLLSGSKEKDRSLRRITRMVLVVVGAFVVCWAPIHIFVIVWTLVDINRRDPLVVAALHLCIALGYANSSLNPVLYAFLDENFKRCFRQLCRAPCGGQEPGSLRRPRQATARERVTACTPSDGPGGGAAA

hNK1R [9] = biological target: T1, hNK1R; assay: Functional NK1R assay; format: cell-based; conditions: compared to lead compound 4
MOR [10] = assay: Functional GPI; format: biochemical, guinea pig
CCI-exposed rats [11] = assay: Tolerance development in neuropathic pain model; format: in vivo, rat; conditions: von Frey and cold plate, repeated i.t. 1 nmol
DOR [12] = biological target: DOR (Mus musculus, UniProt P32300); assay: Functional mouse vas deferens; format: biochemical; conditions: from 22 to 33, MVD assay
DOR (Mus musculus, UniProt P32300), sequence (P32300 whole entry): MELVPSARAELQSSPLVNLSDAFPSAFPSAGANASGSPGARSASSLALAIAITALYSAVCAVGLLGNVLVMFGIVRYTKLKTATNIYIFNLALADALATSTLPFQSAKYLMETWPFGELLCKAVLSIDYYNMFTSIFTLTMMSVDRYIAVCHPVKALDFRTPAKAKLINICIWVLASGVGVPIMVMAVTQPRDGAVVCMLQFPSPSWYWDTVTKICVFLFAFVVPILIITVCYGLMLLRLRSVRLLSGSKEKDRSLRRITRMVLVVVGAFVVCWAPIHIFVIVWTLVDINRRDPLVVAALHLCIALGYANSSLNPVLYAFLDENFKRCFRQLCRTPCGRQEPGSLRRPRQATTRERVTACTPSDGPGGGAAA

Cc1cc(O)cc(C)c1C[C@H](N)C(=O)N[C@H](CCCNC(=N)N)C(=O)N[C@H]1Cc2ccccc2CN(CC(=O)N(C)Cc2cc(C(F)(F)F)cc(C(F)(F)F)c2)C1=O [Compound 4, H-Dmt-D-Arg-Aba-Gly-NMe-3’,5’-(CF3)2-Bn]
cross tolerance with morphine (CCI-exposed rats [1]): cross tolerance | antinociceptive potency relative to i.p. administered morphine (mice [2]): 3.7 times | antinociceptive effect in acute pain (naïve rats): 30 % MPE | toxic effect (naïve rats): seizures and death of animals | Response (ED50) with 95% confidence limits, Tail-flick (naïve rats): 1.66 (1.11-2.51) nmol i.t. | effect in tail-flick test (naïve rats): increase the nociceptive threshold | toxic effect (CCI-exposed rats [3]; 1 nmol i.t., CCI rats): not observed | attenuation of allodynia, von Frey (CCI-exposed rats [3]; 1 nmol i.t., day 7 after CCI): 60 % MPE | toxic effect (CCI-exposed rats [3]; highest investigated dose 9.5 nmol i.t., CCI rats, not shown): toxic effect | Response (ED50) with 95% confidence limits, von Frey (CCI-exposed rats [3]; day 7 after CCI): 1.05 (0.65 - 1.69) nmol i.t. | Response (ED50) with 95% confidence limits, Cold plate (CCI-exposed rats [4]; day 7 after CCI): 1.14 (0.74 - 1.77) nmol i.t.

CC(=O)N[C@H]1Cc2ccccc2CN(CC(=O)N(C)Cc2cc(C(F)(F)F)cc(C(F)(F)F)c2)C1=O [Compound 6, Ac-Aba-Gly-NMe-3’,5’-(CF3)2-Bn]
effect in tail-flick test (naïve rats): very weak | activity in tail-flick test after i.v. administration (mice [5]; doses up to 1.21 μmol/kg i.v., not shown): did not show any activity at all; also recorded: not active at all | antiallodynic activity (CCI-exposed rats [3]; i.t., day 7 after CCI): significantly more potent than the opioid parent compounds | effect on hyperalgesia (CCI-exposed rats [4]; i.t., day 7 after CCI): more potent in antagonizing hyperalgesia than hybrid 4 and approximately similar to 22

Cc1cc(O)cc(C)c1C[C@H](N)C(=O)N[C@H](CCCNC(=N)N)C(=O)N[C@H]1Cc2ccccc2CN(CC(N)=O)C1=O [Compound 7, H-Dmt-D-Arg-Aba-Gly-NH2]
effect in tail-flick test (naïve rats): increase the nociceptive threshold | toxic effect (CCI-exposed rats [3]; 1 nmol i.t., CCI rats): toxic effect

Cc1cc(O)cc(C)c1C[C@H](N)C(=O)N[C@H](CCCNC(=N)N)C(=O)N[C@H]1Cc2ccccc2CN(CCC(=O)N(C)Cc2cc(C(F)(F)F)cc(C(F)(F)F)c2)C1=O [Compound 21, H-Dmt-D-Arg-Aba-β-Ala-NMe-3’,5’-(CF3)2-Bn]
loss in NK1R binding (hNK1R [6]; vs 4): 120 fold | improvement of MOR binding (MOR [7]): 5 fold | improvement of DOR binding (DOR [8]; vs 4 (Gly4 replaced by β-Ala)): 5 fold

Cc1cc(O)cc(C)c1C[C@H](N)C(=O)N[C@H](CCCNC(=N)N)C(=O)N[C@H]1Cc2ccccc2CN(CCC(=O)N(C)Cc2ccccc2)C1=O [Compound 22, H-Dmt-D-Arg-Aba-β-Ala-NMe-Bn]
loss in antagonism potency (hNK1R [9]): 1.5 log unit | improvement of NK1R binding affinity (hNK1R [6]; vs 21): approximately 4 times | improvement of in vitro agonism at MOR (MOR [10]; vs 21): 6 fold | DOR binding increase (DOR [8]; vs 21): 10 factor | antinociceptive effect by area under curve (CCI-exposed rats [11]): most potent antinociceptive effect | effect of a single dose in rats rendered tolerant to morphine (CCI-exposed rats [1]; 22 1 nmol i.t. after repeated morphine 3.5 nmol): not effective | cross tolerance with morphine (CCI-exposed rats [1]): cross tolerance | antinociceptive effect in acute pain (naïve rats): 30 % MPE | toxic effect (naïve rats): did not induce a toxic effect | Response (ED50) with 95% confidence limits, Tail-flick (naïve rats): 2.78 (1.80-4.30) nmol i.t. | duration of antinociceptive effect (naïve rats): 2 h | effect in tail-flick test (naïve rats): increase the nociceptive threshold | toxic effect (CCI-exposed rats [3]; 1 nmol i.t., CCI rats): not observed | attenuation of allodynia, von Frey (CCI-exposed rats [3]; 1 nmol i.t., day 7 after CCI): 80 % MPE | toxic signs (CCI-exposed rats [3]; i.t., CCI rats, doses up to 11 nmol): lack of toxic signs | Response (ED50) with 95% confidence limits, von Frey (CCI-exposed rats [3]; day 7 after CCI): 0.24 (0.18 - 0.32) nmol i.t. | toxicity (CCI-exposed rats [4]; 10 nmol i.t., not shown): lacking toxicity | Response (ED50) with 95% confidence limits, Cold plate (CCI-exposed rats [4]; day 7 after CCI): 0.34 (0.25 - 0.46) nmol i.t.

Cc1cc(O)cc(C)c1C[C@H](N)C(=O)N[C@H](CCCNC(=N)N)C(=O)N[C@H]1Cc2ccccc2CN(CC(=O)N(Cc2cc(C(F)(F)F)cc(C(F)(F)F)c2)CC(C)C)C1=O [Compound 27, H-Dmt-D-Arg-Aba-Gly-NiBu-3’,5’-(CF3)2-Bn]
IC50 (MOR [10]; read-out: GPI (IC50 nM), representative of MOR activation): 19.7 nM

Cc1cc(O)cc(C)c1C[C@H](N)C(=O)N[C@H](CCCNC(=N)N)C(=O)N[C@H]1Cc2ccccc2CN(CC(=O)N(Cc2ccccc2)CC(C)C)C1=O [Compound 28, H-Dmt-D-Arg-Aba-Gly-NiBu-Bn]
GPI agonist character (MOR [10]; GPI): P.A ^e

Cc1cc(O)cc(C)c1C[C@H](N)C(=O)N[C@H](CCCNC(=N)N)C(=O)N[C@H]1Cc2ccccc2CN(CCC(N)=O)C1=O [Compound 33, H-Dmt-D-Arg-Aba-β-Ala-NH2]
shift in DOR potency (DOR [12]): 10 fold | duration of antinociceptive effect (naïve rats): 2 h | effect in tail-flick test (naïve rats): increase the nociceptive threshold | antinociceptive response (mice [5]; 1.21 μmol/kg i.v., mice): largely exceeded that of morphine | toxic effect (CCI-exposed rats [3]; 1 nmol i.t., CCI rats): toxic effect
